Experimental data as given in US20070015813A1, “Treatment of protein folding disorders” (QUEEN'S UNIVERSITY AT KINGSTON, priority 2005, published 2007).

Columns and labels:
Aβ1-42 = target: T1, Aβ1-42 (Homo sapiens, UniProt P05067); assay: Kinetic Thioflavin T (ThT) aggregation assay of Aβ1-42; format: biochemical; settings: 20 μM Aβ1-42, kinetic ThT assay
T1 construct: Aβ^1-42 (AnaSpec, lot 45685); purchased AnaSpec
Method: Aβ^1-42 (1.0 mg) was either pretreated with HFIP in the same manner as Aβ^1-40 or this step was omitted. After removing HFIP, when appropriate, Aβ^1-42 was dissolved in 1% NH3 (aq.) (200 μL) and sonicated for 1 min. The solution was diluted with Tris-HCl (5.7 mL, 20 mM, pH 7.4), the pH adjusted to 7.4 with concentrated HCl (aq.) and the solution filtered using a syringe filter (0.2 μm). Prior to use in the ThT aggregation assay, the solution was diluted with an equal volume of 8 μM Thioflavin T (ThT) in Tris-HCl (20 mM, pH 7.4, 300 mM NaCl).
(§1) Aliquots (200 μL) of Aβ^1-40, Aβ^1-42, tau441 or α-synuclein with ThT or ThS were added to wells of a black polystyrene 96-well plate, followed by 2 μL of a compound in DMSO (various concentrations), or DMSO alone (controls). For α-synuclein, sodium dodecyl sulfate solution (2.0 μL, 30 mM) was also added to each well to induce aggregation. Incubations were performed in triplicate and were taken to contain 20 μM Aβ^1-40 or Aβ^1-42, 6 μM tau441 or 4 μM α-synuclein. Plates were covered with clear polystyrene lids and incubated at 37° C. in a GENios microplate reader obtained from Tecan Group Limited, Mannedorf, Zurich. For Aβ^1-40, tau441 and α-synuclein, fluorescence readings (λex=450 nm, λem=480 nm) were taken every 15 min., after first shaking at high intensity for 15 sec. and allowing to settle for 10 sec. before each reading. For Aβ^1-42, readings were taken every 5 min.
(§2) The absorbance of each compound was measured under the conditions used during testing, though on ten times the scale (2 mL), to ensure no significant quenching interfered with the assay. This step was also used to identify whether compounds were completely soluble under testing conditions.
FIG. 7 depicts inhibition of Aβ^1-42 aggregation by various synthesized bi-aromatic compounds and positive controls morin (Ono K, Yoshiike Y, Takashima A, Hasegawa K, Naiki H, Yamada M. 2003. J Neurochem 87:172-81) and RS-0406 (Walsh D M, Townsend M, Podlisny M B, Shankar G M, Fadeeva J V, Agnaf O E, Hartley D M, Selkoe D J. 2005. J Neurosci 25:2455-62) in the kinetic ThT assay. Same conditions as for Aβ^1-40, FIG. 1. Compound concentrations were 100 μM in (A), 20 μM in (B), except for RS-0406, which was tested at 100 μM, and 20 μM in (C).

Aβ1-40 = target: T2, Aβ1-40 (Homo sapiens, UniProt P05067); assay: Kinetic Thioflavin T (ThT) aggregation assay of Aβ1-40; format: biochemical; settings: for inhibition of Aβ1-40 aggregation, as measured by Thioflavin T (ThT) fluorescence: 20 μM Aβ1-40, 4 μM ThT, pH 7.4, 37° C., kinetic ThT assay
T2 construct: Aβ^1-40 (AnaSpec, San Jose, Calif., lots 14212, 34862 and 34889); purchased AnaSpec, San Jose, Calif
Method: Aβ^1-40 (1.0 mg) was pre-treated in a 1.5 mL microfuge tube with 1,1,1,3,3,3-hexafluoroisopropanol (HFIP, 1 mL) and sonicated for 20 min. to disassemble any pre-formed Aβ aggregates. The HFIP was removed with a stream of argon and the Aβ dissolved in Tris base (5.8 mL, 20 mM, pH 10.5). The pH was adjusted to 7.4 with concentrated HCl and the solution filtered using a syringe filter (0.2 μm). This solution was used for circular dichroism studies or diluted with an equal volume of 8 μM Thioflavin T (ThT) in Tris-HCl (20 mM, pH 7.4, 300 mM NaCl) for the ThT aggregation assay.
as §1, §2
FIG. 1 depicts the inhibition of Aβ^1-40 aggregation, as measured by Thioflavin T (ThT) fluorescence, by directly-linked 3,3′-bis-indolyl compounds 0c-i (A), other bis-indoles (B), aza-indole-containing compounds (C), indole-phenols (D), indole-5-carboxylic acid-containing bi-aromatics (E), and naphthol-containing bi-aromatics (F). Aggregation conditions: 20 μM Aβ^1-40 incubated in covered black 96-well polystyrene microplates with 4 μM ThT, pH 7.4, Tris-HCl (20 mM), 150 mM NaCl, 1% DMSO. Compound concentrations are 200 μM (A,B, except where otherwise noted), 100 μM (E), 20 μM (F), or as indicated (C,D). Plates heated at 37° C. in Tecan Genios microplate reader. All incubations performed in triplicate. Prior to experiment, Aβ^1-40 pretreated with 1,1,1,3,3,3-hexafluoroisopropanol (HFIP). Fluorescence readings: fluorescence measured every 15 min. (λex=450 nm, λem=480 nm) after shaking for 15 sec. and pausing 10 sec. before taking measurement. Values are the mean of three replicates. Error bars, omitted for clarity in (B), represent standard deviation of the mean.

[1] = Colour on exposure to light and air (stability to oxidation); format: physicochemical; settings: solid compounds, days or weeks
Method: The highly branched bridging groups of 1h,i,j provide additional molecular diversity to help identify favourable characteristics for compound activity against Aβ.

tau441 = target: T3, tau441 (Homo sapiens, UniProt P10636); assay: Kinetic Thioflavin S (ThS) assay of tau441 aggregation; format: biochemical
T3 construct: (expression construct); host or cells: E. coli BL21 D3
Method: The tau441 expression construct [L Buee et al. (2000). Brain Research Reviews 33:95-130] was purchased (Bioclon Inc., San Diego, Calif.) already transformed in BL21 D3 bacterial cells (Novagen/EMD Biosciences) for protein expression. Cells were grown and induced with IPTG according to Novagen's protocol. To lyse cells, Cellytic B reagent (Sigma) was used with lysozyme protease inhibitors (Sigma) and benzonase (Novagen/EMD Biosciences), according to manufacturer's methods. Lysate was cleared by centrifugation for 20 min at 10,000 RPM (SS34 rotor, Sorvall RC2b centrifuge) at 4° C. Protein was purified from the soluble fraction. Once purified, tau441 was stored at −78° C. as frozen aliquots (8.3 mg/mL, 60 μL) in Tris-HCl (50 mM, pH 7.4) until used.
Frozen aliquots of tau441 (8.3 mg/mL, 60 μL) in Tris-HCl (50 mM, pH 7.4) were allowed to thaw at room temperature (RT) before being diluted with Tris-HCl (2.64 mL, 50 mM, pH 7.4) containing dithiothreitol (DTT, 1 mM) to prevent disulfide bonds and NaN3 (50 μM) to prevent bacterial growth. After allowing to stand at RT for 1 h, Thioflavin S (ThS) was added (2.5 μL, 10.8 mM), followed by the aggregation inducer heparin (20 μL, 1.08 g/mL).
as §1
Aggregation conditions: tau441 at a concentration of either 10 μM (A) or 4 μM (B,C,D,E) was incubated in covered black 96-well polystyrene microplates alone or with 100 (A) or 50 μM compound (B,C,D,E), 5 μM ThS, pH 7.4, Tris-HCl (50 mM) containing NaN3 (50 μM), and either 1% MeOH (A) or 1% DMSO (B,C,D,E). Plates were heated at 37° C. in a Tecan GENios microplate reader. All incubations performed in triplicate, except for compound 0c in (A), which had n=1. Fluorescence readings: fluorescence measured every 15 min. (λex=450 nm, λem=480 nm) after shaking for 15 sec. and pausing 10 sec. before taking measurement. Values are the mean of three replicates. Error bars, sometimes not visible due to small size, represent standard deviation of the mean.
Aggregation conditions: tau441 at a concentration of 4 μM was incubated in covered black 96-well polystyrene microplates alone or with 50 μM (A,B,C) or 1 mM compound (D), 5 μM ThS, pH 7.4, Tris-HCl (50 mM) containing NaN3 (50 μM), and 1% DMSO. Plates were heated at 37° C. in a Tecan GENios microplate reader. All incubations performed in triplicate. Fluorescence readings: fluorescence measured every 15 min. (λex=450 nm, λem=480 nm) after shaking for 15 sec. and pausing 10 sec. before taking measurement. Values are the mean of three replicates. Error bars, sometimes not visible due to small size, represent standard deviation of the mean.

T1 sequence (P05067 672-713 limits assumed): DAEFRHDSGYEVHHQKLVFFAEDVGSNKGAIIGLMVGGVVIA
T2 sequence (P05067 672-711 limits assumed): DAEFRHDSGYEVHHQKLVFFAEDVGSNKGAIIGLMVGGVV
T3 sequence (P10636 1-441 isoform P10636-8): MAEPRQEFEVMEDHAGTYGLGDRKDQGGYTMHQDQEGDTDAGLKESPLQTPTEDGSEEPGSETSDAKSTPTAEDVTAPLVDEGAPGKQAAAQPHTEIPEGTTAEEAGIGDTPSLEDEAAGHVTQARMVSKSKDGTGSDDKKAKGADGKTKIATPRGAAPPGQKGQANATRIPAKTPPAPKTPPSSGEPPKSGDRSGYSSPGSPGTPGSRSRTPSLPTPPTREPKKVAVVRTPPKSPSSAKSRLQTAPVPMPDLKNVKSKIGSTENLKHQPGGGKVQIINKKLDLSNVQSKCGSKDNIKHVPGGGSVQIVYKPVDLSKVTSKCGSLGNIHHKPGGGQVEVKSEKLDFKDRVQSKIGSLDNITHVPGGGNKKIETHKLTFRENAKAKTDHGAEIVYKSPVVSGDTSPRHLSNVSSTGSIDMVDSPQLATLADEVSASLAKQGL

Row | SMILES | melting point | inhibition of Aβ1-42 aggregation, as measured by ThT fluorescence (Aβ1-42) | also measured
1 | COc1ccc2[nH]cc(-c3c[nH]c4ccc(OC)cc34)c2c1 [0b, 5-methoxy-3-(5-methoxy-indol-3-yl)-indole] | 193 to 196 °C |  | 
2 | O=C(O)c1ccc2c(-c3c[nH]c4ccccc34)c[nH]c2c1 [0k, 3-(Indol-3-yl)-indole-6-carboxylic Acid] |  | inhibiting aggregation | 
3 | Oc1ccc2[nH]cc(C3CNc4ncccc43)c2c1 (stereo not shown) [0n, 3-(2,3-dihydro-7-azaindol-3-yl)-indol-5-ol] |  | inhibit aggregation | inhibition of Aβ1-40 aggregation, as measured by Thioflavin T (ThT) fluorescence (Aβ1-40): inhibit aggregation
4 | B.O=C(O)c1ccc2[nH]cc(-c3c[nH]c4ncccc34)c2c1 [0o, 3-(7-azaindol-3-yl)-indole-5-carboxylic acid.BH3] |  | inhibit aggregation | inhibition of Aβ1-40 aggregation, as measured by Thioflavin T (ThT) fluorescence (Aβ1-40): inhibit aggregation
5 | c1ccc2c(c1)ccn2Cc1c[nH]c2ccccc12 [1b, 3-((indol-1-yl)methyl)-indole] | 82 to 84 °C |  | 
6 | COc1ccc2c(ccn2Cc2c[nH]c3ccc(OC)cc23)c1 [1d, 5-methoxy-3-((5-methoxy-indol-1-yl)methyl)-indole] | 48 to 50 °C |  | 
7 | CC(C)(c1c[nH]c2ccc(O)cc12)c1c[nH]c2ccc(O)cc12 [1h, 2,2-Bis-(5-hydroxyindol-3-yl)propane] | 133 to 136 °C |  | colour when exposed to light and air [1]: remained a light colour
8 | CC1(C)CC(C)(c2c[nH]c3ccc(O)cc23)c2[nH]c3ccc(O)cc3c21 (stereo not shown) [1i, 1,2,3,4-Tetrahydro-3-(5-hydroxyindol-3-yl)-1,1,3-trimethylcyclopenta[b]indol-7-ol] | 132 °C (dec.) |  | colour when exposed to light and air [1]: remained a light colour
9 | CC1(C)CC2(CC(C)(C)c3c2[nH]c2ccc(O)cc32)c2[nH]c3ccc(O)cc3c21 [1j, 3,3,3′,3′-Bis(1,2,3,4-tetrahydro-1,1-dimethylcyclopenta[b]indol-7-ol)] | 140 °C (dec.) |  | colour when exposed to light and air [1]: remained a light colour
10 | O=C(O)c1ccc2[nH]cc(CCc3c[nH]c4ccc(Br)cc34)c2c1 [2b, 3-(2-(5-bromo-indol-3-yl)ethyl)-indole-5-carboxylic Acid] | 205 °C (dec.) |  | 
11 | B.COc1ccc2[nH]cc(-c3c[nH]c4ncccc34)c2c1 [10n, 3-(5-methoxyindol-3-yl)-7-azaindole.BH3] |  | inhibit aggregation | inhibition of Aβ1-40 aggregation, as measured by Thioflavin T (ThT) fluorescence (Aβ1-40): inhibit aggregation
12 | Oc1cccc(Nc2ccc(Nc3cccc(O)c3)nn2)c1 [RS-0406] |  | inhibition | 
13 | Oc1ccc2cc(-c3cc4ccccc4o3)ccc2c1 [compound 64, 6-Benzofuran-2-yl-naphthalen-2-ol] |  | inhibiting aggregation | 
14 | O=C(O)c1sc2ccccc2c1-c1cc2ccccc2o1 [compound 83, 3-(Benzofuran-2-yl)-benzothiophene-2-carboxylic Acid] |  |  | effect on tau fibrillization (ThS fluorescence) (tau441; tau441 4 or 10 μM, 50 to 100 μM compound, 5 μM ThS, heparin inducer, pH 7.4, 37° C.): Other than 83 in FIG. 10E, all the bi-aromatics tested significantly modulated
15 | O=C(O)c1ccc2[nH]c(Cc3ccc(O)cc3)c(Cc3ccc(O)cc3)c2c1 [compound 102, 2,3-bis(4-hydroxybenzyl)-indole-5-carboxylic Acid] |  |  | activity against (inhibition of) Aβ1-40 aggregation at 200 μM compound (Aβ1-40; 200 μM compound, 20 μM Aβ1-40, kinetic ThT assay (FIG. 1A, 1D)): active
16 | O=C(O)c1cccnc1 [nicotinic acid] |  |  | effect on tau fibrillization (ThS fluorescence) at 1 mM (tau441; tau441 4 μM, 1 mM compound (FIG. 11D)): no effect
